In PMC10614160 (Journal of medicinal chemistry, 2023):

System: OVSAHO cells
Assay: cell viability of OVSAHO cells
Format: cell-based
Conditions: for effect of combining the drug with 1 on inhibiting OVSAHO cells: compared with 1 alone; for 24 h cytotoxicity against OVSAHO: drug alone

Compound: CC(C)(C)c1ccc(S(=O)(=O)/C=C/C#N)cc1 [BAY11–7085]
- effect of combining the drug with 1 on inhibiting OVSAHO cells (combined with 1 (20 μM), 24 h): slightly enhances

Compound: CC(C)C[C@H](NC(=O)[C@H](Cc1ccccc1)NC(=O)c1cnccn1)B(O)O [BTZ, bortezomib]
- effect of combining the drug with 1 on inhibiting OVSAHO cells (combined with 1 (20 μM), 24 h): No inhibition enhancement

Compound: COC(=O)[C@@]1(O)C[C@H]2O[C@]1(C)n1c3ccccc3c3c4c(c5c6ccccc6n2c5c31)C(=O)NC4 [K252A]
- effect of combining the drug with 1 on inhibiting OVSAHO cells (combined with 1 (20 μM), 24 h): slightly enhances

Compound: O=C(C1CC1)N1CCN(Cn2sc3ccccc3c2=O)CC1 [LOC14]
- effect of combining the drug with 1 on inhibiting OVSAHO cells (combined with 1 (20 μM), 24 h): No inhibition enhancement

Compound: N.N.[Cl][Pt][Cl] [cisplatin]
- effect of combining the drug with 1 on inhibiting OVSAHO cells (combined with 1 (20 μM), 24 h): slightly enhances

Compound: COc1cccc2c1C(=O)c1c(O)c3c(c(O)c1C2=O)C[C@@](O)(C(=O)CO)C[C@@H]3O[C@H]1C[C@H](N)[C@H](O)[C@H](C)O1 [doxorubicin]
- cell viability of OVSAHO treated with 1 combined with the drug (combined with 1 (20 μM), 24 h): ~20%
- 24 h cytotoxicity against OVSAHO (1.25 μM): around 75%
- 24 h cytotoxicity against OVSAHO (2.5 μM): around 75%
- 24 h cytotoxicity against OVSAHO (5 μM): around 75%

Compound: CC(=O)O[C@H]1C(=O)[C@@]2(C)[C@H]([C@H](OC(=O)c3ccccc3)[C@]3(O)C[C@H](OC(=O)[C@H](O)[C@@H](NC(=O)c4ccccc4)c4ccccc4)C(C)=C1C3(C)C)[C@]1(OC(C)=O)CO[C@@H]1C[C@@H]2O [paclitaxel]
- effect of combining the drug with 1 on inhibiting OVSAHO cells (combined with 1 (20 μM), 24 h): No inhibition enhancement

Compound: Cn1ncnc1[C@H]1c2n[nH]c(=O)c3cc(F)cc(c23)N[C@@H]1c1ccc(F)cc1 [talazoparib]
- effect of combining the drug with 1 on inhibiting OVSAHO cells (combined with 1 (20 μM), 24 h): No inhibition enhancement

Compound: PACMA31
- effect of combining the drug with 1 on inhibiting OVSAHO cells (combined with 1 (20 μM), 24 h): No inhibition enhancement
